Laboratory results: US5514664A, “1,4-dihydropyridines for application in combatting resistance to drugs” (BYK Gulden Lomberg Chemische Fabrik GmbH, priority 1990, dated 1996)
“And” between values parts separate entries of the source, which are not always exact repeats. Equal entries are not always repeated. Structures can show the parent of a compound that is named as a salt.

How the values were obtained:
MOLT/VCR-5×9 cells = test: cells; format: cell-based
Description: (§1) For this, a selected compound of the formula I, the compound (-)-1,4-dihydro-2,6-dimethyl-4-(3-nitrophenyl)-pyridine-3,5-dicarboxylic acid 3-methyl 5- 3(4,4-diphenyl-1-piperidinyl)-propyl! ester hydrochloride (=compound 1), was investigated in more detail as follows:
(§2) The tumour cell lines MOLT/VCR-5×9 (starting density: 1.14×10^6 cells/ml), MOLT/DAU-8 (starting density: 1.01×10^6 cells/ml) and CCRF CEMVCR1000+(starting density: 2.00×10^6 cells/ml), which are resistant towards the cytostatics vincristine and daunomycin, were incubated for 72.5 to 73.25 hours in accordance with the following test pattern:
(§3) 2. Control with the cytostatic relating to the particular cell line (for the concentrations, see below)
(§4) 4. Compound 1 in concentrations of 10^-6 and 10^-7 M
(§5) 5. Compound 1 in concentrations of 10^-6 and 10^-7 M, together with the cytostatic relating to the particular cell line (for the concentrations, see below).
(§6) The cytostatic concentrations used for the individual cell lines were:
(§7) Vincristine: 5×10^-9 M (for MOLT/VCR-5×9)

[1] = system: MOLT/VCR-5×9, MOLT/DAU-8 and CCRF CEM VCR1000+ tumour cell lines
Description: as §1, §2, §3, §4, §5, §6, §7

CCRF CEM VCR1000+ cells = test: cells; format: cell-based
Description: as §1, §2, §3, §4, §5
(§8) The cytostatic concentrations used for the individual cell lines were: […]

MOLT/DAU-8 cells = test: cells; format: cell-based
Description: as §1, §2, §3, §4, §5, §8

[2] = 73.25 h, read-out: Growth inhibition in %, compound 1 by itself
[3] = Homo sapiens, CCRF-CEM/VCR-1000, 73.25 h, read-out: Growth inhibition in %, compound 1 by itself

`COC(=O)C1=C(C)NC(C)=C(C(=O)OCCCN2CCC(c3ccccc3)(c3ccccc3)CC2)C1c1cccc([N+](=O)[O-])c1` (single isomer, unassigned; (-)) [Compound 1, (-)-1,4-dihydro-2,6-dimethyl-4-(3-nitrophenyl)-pyridine-3,5-dicarboxylic acid 3-methyl 5-3(4,4-diphenyl-1-piperidinyl)-propyl! ester hydrochloride] was tested, and the “Growth inhibition in %, compound 1 + cytostatic” value (“Growth inhibition in %” for short) (MOLT/VCR-5×9 cells) was 99, the inhibition at 0.1 µM (MOLT/VCR-5×9 cells; [2]) was 66% and the inhibition at 10 µM (MOLT/VCR-5×9 cells; [2]) was 79%. The “concentration dependence of growth inhibition (in words)” value [1] was “This inhibition of growth depends on the concentration”, the “inhibition of growth by compound 1 by itself (in words)” value [1] was “All resistant cells are inhibited in their growth” and the “overcoming of resistance and intensification of cytotoxicity (in words)” value [1] was “the resistance towards cytostatics is overcome and the cytotoxicity of the cytostatics is intensified”. The inhibition at 0.1 µM (CCRF CEM VCR1000+ cells; [3]) was 10%, the inhibition at 10 µM (CCRF CEM VCR1000+ cells; [3]) was 67% and the “Growth inhibition in %” value (CCRF CEM VCR1000+ cells; hydrochloride) was 65 and 90. The inhibition at 0.1 µM (MOLT/DAU-8 cells; [2]) was 43%, the inhibition at 10 µM (MOLT/DAU-8 cells; [2]) was 53% and the “Growth inhibition in %” value (MOLT/DAU-8 cells; hydrochloride) was 56 and 96.

Compound `COc1cccc2c1C(=O)c1c(O)c3c(c(O)c1C2=O)C[C@@](O)(C(C)=O)C[C@@H]3O[C@H]1C[C@H](N)[C@H](O)[C@H](C)O1` [Daunomycin, reference compound] has an inhibition at 0.01 µM (MOLT/DAU-8 cells; MOLT/DAU-8, daunomycin 10^-8 M by itself, 72.5 to 73.25 h, vs DMSO control, read-out: Growth inhibition in %, cytostatic by itself) of 0%.

Compound `CC[C@]1(O)C[C@H]2CN(CCc3c([nH]c4ccccc34)[C@@](C(=O)OC)(c3cc4c(cc3OC)N(C=O)[C@H]3[C@@](O)(C(=O)OC)[C@H](OC(C)=O)[C@]5(CC)C=CCN6CC[C@]43[C@@H]65)C2)C1` [Vincristine, reference compound] has an inhibition at 0.005 µM (MOLT/VCR-5×9 cells; MOLT/VCR-5 × 9, vincristine 5 × 10^-9 M by itself, 72.5 to 73.25 h, vs DMSO control, read-out: Growth inhibition in %, cytostatic by itself) of 0% and an inhibition at 1.08 µM (CCRF CEM VCR1000+ cells; Homo sapiens, CCRF-CEM/VCR-1000, CCRF CEM VCR1000+, vincristine 1.08 × 10^-6 M by itself, 72.5 to 73.25 h, vs DMSO control, read-out: Growth inhibition in %, cytostatic by itself) of 0%.
